Source: US10098852B2 (LAUNX BIOMEDICAL CO., LTD., priority 2014, dated 2018)
“And” between values parts separate entries of the source, which are not always exact repeats. Equal entries are not always repeated. Where two headings read alike, the source gives them in different places.

Key:
[1] = test system: TSGH (bladder cancer cell line); experiment: Cell viability analysis (WST-1), bladder cancer cell line TSGH; assay type: cell-based
Experimental: (§1) The cell numbers were counted and reseed as 2×10^6 in cell culture plate/flask. Then, the culture medium was added to a volume of 10 ml, and the cells were cultured for 2-3 days. Then, the cells were suspended for loading into 96-well plates. The cell number was 3000/well and the volume of the culture medium was 100 μl each well.
(§2) Removing the original culture medium from 96-well plate. Then add 100 μl of commercially drug at a concentration of 10 μM per well. After 72 hours, add the diluted WST-1 reagent to the well with 100 μl/well, and the diluted WST-1 reagent was acquired from the dilution of 9:1 medium and WST-1 stock reagent. Finally, the total volume of each well was 200 μl/well. Culture the 96-well plate at 37° C. for 30 to 90 minutes. Detecting and calculate the survival rate of each cancer cells with an ELISA reader at OD450 nm.

[2] = Cell viability analysis (WST-1), human fibroblast cell line HFW; assay type: cell-based; conditions: HFW fibroblast cells (normal)
Experimental: as §1, §2

cervical cancer cell = experiment: Summary of the effect on cervical cancer cell (HeLa, C-33A); assay type: cell-based; conditions: cervical cancer cell (mean of HeLa and C-33A averages), 72 hours, read-out: Inhibitory effect
Experimental: as §2

ovarian cancer cell = experiment: Summary of the effect on ovarian cancer cell (NIH-OVCAR-3, TOV-21G); assay type: cell-based; conditions: ovarian cancer cell (mean of NIH-OVCAR-3 and TOV-21G averages), 72 hours, read-out: Inhibitory effect
Experimental: as §2

[3] = Animal model test of gastric cancer: body weight and survival; assay type: in vivo, mice (BALB/cAnN.Cg-Foxn1nu/CrlNarl); conditions: for weight: individual mice A, B, C
Experimental: In this invention, the female mice were (BALB/cAnN.Cg-Foxn1^nu/CrlNarl) purchased from National Laboratory Animal Center (Taiwan)). The weight of the mice were 21±1 g. These mice were subcutaneously injected with gastric cancer cells (AGS) and then put these mice into different cages at random. The drug test experiment was divided into three groups, include “control group”, “low dose group (100 mg/kg/day)”, and “high dose group (200 mg/kg/day)”. These mice were then injected test drug intraperitoneally once daily […]. The tumor sizes and body weight were measured twice a week. The tumor sizes were measured and calculated by formula: (L×W^2)/2. L represents the tumor longest length. W represents the tumor shortest diameter.

Work on `Oc1ccc(OCc2ccccc2)cc1` [Monobenzone] yielded a viability at 10 µM ([1]; 72 h, average of 4 tests, read-out: inhibition effect (survival rate of cells), average) of 84.6%, a viability at 10 µM ([1]; 72 hours, test 0510-10 min, read-out: inhibition effect (survival rate of cells)) of 90.2% and a viability at 10 µM ([1]; 72 hours, test 0512-10 min, read-out: inhibition effect (survival rate of cells)) of 92.8%. It also gave a viability at 10 µM ([1]; 72 hours, test 0515-10 min, read-out: inhibition effect (survival rate of cells)) of 83%, a viability at 10 µM ([1]; 72 hours, test 0517-10 min, read-out: inhibition effect (survival rate of cells)) of 72.5% and a viability at 72 h, 10 µM ([2]; average of 4 tests, read-out: inhibition effect (survival rate of cells), average) of 85.4%. It also gave a viability at 72 h, 10 µM ([2]; test 0612-10 min, read-out: inhibition effect (survival rate of cells)) of 120%, a viability at 72 h, 10 µM ([2]; test 0614-10 min, read-out: inhibition effect (survival rate of cells)) of 74.9% and a viability at 72 h, 10 µM ([2]; test 0616-10 min, read-out: inhibition effect (survival rate of cells)) of 68.1%. The viability at 72 h, 10 µM ([2]; test 0619-10 min, read-out: inhibition effect (survival rate of cells)) was 79.1%, the viability at 10 µM (cervical cancer cell) was 71.2% and the viability at 10 µM (ovarian cancer cell) was 85%. For the same compound, the “health status / death of tested mice during the treatment (in words)” value ([3]; both high and low doses) was “healthy status during the treatment without death”, the “weight of mice during the experiment (in words)” value ([3]; both low dose and high dose, FIG. 2) was “did not show a significant decrease” and the weight ([3]; high dose (200 mg/kg/day) i.p. once daily, Fifth measurement, 200 mg/kg/day) was 20 g (2×) and 21 g. The weight ([3]; high dose (200 mg/kg/day) i.p. once daily, First measurement, 200 mg/kg/day) was 20 g (2×) and 19.5 g, the weight ([3]; high dose (200 mg/kg/day) i.p. once daily, Fourth measurement, 200 mg/kg/day) was 20 g (2×) and 21 g and the weight ([3]; high dose (200 mg/kg/day) i.p. once daily, Second measurement, 200 mg/kg/day) was 19 g (2×) and 20 g. The weight ([3]; high dose (200 mg/kg/day) i.p. once daily, Third measurement, 200 mg/kg/day) was 20.5 g and 19 g and 20 g, the weight ([3]; low dose (100 mg/kg/day) i.p. once daily, Fifth measurement, 100 mg/kg/day) was 20 g (2×) and 21 g and the weight ([3]; low dose (100 mg/kg/day) i.p. once daily, First measurement) was 21 g. The weight ([3]; low dose (100 mg/kg/day) i.p. once daily, Fourth measurement, 100 mg/kg/day) was 20 g (2×) and 21 g, the weight ([3]; low dose (100 mg/kg/day) i.p. once daily, Second measurement, 100 mg/kg/day) was 20 g (2×) and 19 g and the weight ([3]; low dose (100 mg/kg/day) i.p. once daily, Third measurement, 100 mg/kg/day) was 19.5 g and 19 g and 18.5 g.
